From PubChem BioAssay (NCI)
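Each compound was tested at five concentrations against cells in 96-well plates for 48 hours. TGI: total growth inhibition.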

What was measured:
Experiment in all cases: NCI-60 cell line screen, 48 h
BT-549 breast = test system: BT-549 breast
MDA-MB-435 = test system: MDA-MB-435
OVCAR-5 ovarian = test system: OVCAR-5 ovarian
M14 melanoma = test system: M14 melanoma
ACHN renal = test system: ACHN renal
SK-MEL-5 melanoma = test system: SK-MEL-5 melanoma
HT29 colon = test system: HT29 colon
KM12 colon = test system: KM12 colon
DU-145 prostate = test system: DU-145 prostate
T-47D breast = test system: T-47D breast
UACC-257 melanoma = test system: UACC-257 melanoma
UO-31 renal = test system: UO-31 renal
CAKI-1 renal = test system: CAKI-1 renal
MOLT-4 leukemia = test system: MOLT-4 leukemia
HCT-15 colon = test system: HCT-15 colon
SF-295 CNS = test system: SF-295 CNS
EKVX NSCLC = test system: EKVX NSCLC
HCT-116 colon = test system: HCT-116 colon
MALME-3M melanoma = test system: MALME-3M melanoma
SK-OV-3 ovarian = test system: SK-OV-3 ovarian
A549 NSCLC = test system: A549 NSCLC
HOP-92 NSCLC = test system: HOP-92 NSCLC
RPMI-8226 leukemia = test system: RPMI-8226 leukemia
TK-10 renal = test system: TK-10 renal
SK-MEL-2 melanoma = test system: SK-MEL-2 melanoma
SN12C renal = test system: SN12C renal
LOX IMVI melanoma = test system: LOX IMVI melanoma
OVCAR-3 ovarian = test system: OVCAR-3 ovarian
SF-268 CNS = test system: SF-268 CNS
UACC-62 melanoma = test system: UACC-62 melanoma
MDA-N = test system: MDA-N
SW-620 colon = test system: SW-620 colon
K-562 leukemia = test system: K-562 leukemia
U251 CNS = test system: U251 CNS
OVCAR-4 ovarian = test system: OVCAR-4 ovarian
A498 renal = test system: A498 renal
HOP-62 NSCLC = test system: HOP-62 NSCLC
NCI-H460 lung = test system: NCI-H460 lung
786-0 renal = test system: 786-0 renal
HCC-2998 colon = test system: HCC-2998 colon
COLO 205 colon = test system: COLO 205 colon
SR leukemia = test system: SR leukemia
OVCAR-8 ovarian = test system: OVCAR-8 ovarian
SNB-75 CNS = test system: SNB-75 CNS
NCI/ADR-RES ovarian = test system: NCI/ADR-RES ovarian
CCRF-CEM leukemia = test system: CCRF-CEM leukemia
HS 578T breast = test system: HS 578T breast
SK-MEL-28 melanoma = test system: SK-MEL-28 melanoma
NCI-H226 lung = test system: NCI-H226 lung
NCI-H23 lung = test system: NCI-H23 lung
NCI-H522 lung = test system: NCI-H522 lung
IGROV1 ovarian = test system: IGROV1 ovarian
HL-60(TB) leukemia = test system: HL-60(TB) leukemia
MDA-MB-231 breast = test system: MDA-MB-231 breast
SNB-19 CNS = test system: SNB-19 CNS
RXF 393 renal = test system: RXF 393 renal
SF-539 CNS = test system: SF-539 CNS
MCF7 breast = test system: MCF7 breast
PC-3 prostate = test system: PC-3 prostate

Question: Which results are given for CN(C)/C=C/C=C(/C=N/S(=O)(=O)C(F)(F)F)C1C=CN(S(=O)(=O)C(F)(F)F)C=C1?
Answer: TGI (BT-549 breast): 70.1 µM; TGI (MDA-MB-435): 73.5 µM; TGI (OVCAR-5 ovarian): 91.7 µM; TGI (M14 melanoma): > 100 µM; TGI (ACHN renal): 84.7 µM; TGI (SK-MEL-5 melanoma): 51.7 µM; TGI (HT29 colon): 75.2 µM; TGI (KM12 colon): 71.1 µM; TGI (DU-145 prostate): > 100 µM; TGI (T-47D breast): 75 µM; TGI (UACC-257 melanoma): 77.7 µM; TGI (UO-31 renal): 89.4 µM; TGI (CAKI-1 renal): 76.6 µM; TGI (MOLT-4 leukemia): 71 µM; TGI (HCT-15 colon): 57.8 µM; TGI (SF-295 CNS): > 100 µM; TGI (EKVX NSCLC): 87.2 µM; TGI (HCT-116 colon): 87.2 µM; TGI (MALME-3M melanoma): 82.7 µM; TGI (SK-OV-3 ovarian): 94 µM; TGI (A549 NSCLC): > 100 µM; TGI (HOP-92 NSCLC): 90 µM; TGI (RPMI-8226 leukemia): > 100 µM; TGI (TK-10 renal): > 100 µM; TGI (SK-MEL-2 melanoma): 54.1 µM; TGI (SN12C renal): > 100 µM; TGI (LOX IMVI melanoma): > 100 µM; TGI (OVCAR-3 ovarian): 98 µM; TGI (SF-268 CNS): > 100 µM; TGI (UACC-62 melanoma): 83.9 µM; TGI (MDA-N): > 100 µM; TGI (SW-620 colon): > 100 µM; TGI (K-562 leukemia): > 100 µM; TGI (U251 CNS): > 100 µM; TGI (OVCAR-4 ovarian): 42.9 µM; TGI (A498 renal): 88.8 µM; TGI (HOP-62 NSCLC): > 100 µM; TGI (NCI-H460 lung): > 100 µM; TGI (786-0 renal): > 100 µM; TGI (HCC-2998 colon): 78.5 µM; TGI (COLO 205 colon): 32.6 µM; TGI (SR leukemia): > 100 µM; TGI (OVCAR-8 ovarian): > 100 µM; TGI (SNB-75 CNS): 50.6 µM; TGI (NCI/ADR-RES ovarian): 96.1 µM; TGI (CCRF-CEM leukemia): 79.9 µM; TGI (HS 578T breast): > 100 µM; TGI (SK-MEL-28 melanoma): > 100 µM; TGI (NCI-H226 lung): 67.3 µM; TGI (NCI-H23 lung): 56.6 µM; TGI (NCI-H522 lung): 52.4 µM; TGI (IGROV1 ovarian): > 100 µM; TGI (HL-60(TB) leukemia): 46.4 µM; TGI (MDA-MB-231 breast): 81.7 µM

Question: For O=C1C=C(N2CCN(CCOCCO)CC2)C(=O)c2c(O)ccc(O)c21, which TGI (BT-549 breast) is on record?
Answer: The TGI was 25.5 µM.

Question: What about the TGI (SNB-19 CNS) of the same compound?
Answer: Its TGI is 33.7 µM.

Question: What about the TGI (MDA-MB-435) of the same compound?
Answer: Its TGI is 3.33 µM.

Question: What about the TGI (OVCAR-5 ovarian) of the same compound?
Answer: Its TGI is 12.8 µM.

Question: What about the TGI (M14 melanoma) of the same compound?
Answer: The TGI was 3.1 µM.

Question: And the TGI (ACHN renal)?
Answer: The TGI was 20.1 µM.

Question: What about the TGI (SK-MEL-5 melanoma) of the same compound?
Answer: Its TGI is 3.12 µM.

Question: And the TGI (HT29 colon)?
Answer: Its TGI is 15.5 µM.

Question: And the TGI (KM12 colon)?
Answer: Its TGI is 26.5 µM.

Question: What about the TGI (DU-145 prostate) of the same compound?
Answer: Its TGI is 10.5 µM.

Question: What about the TGI (T-47D breast) of the same compound?
Answer: Its TGI is 18.4 µM.

Question: And the TGI (UACC-257 melanoma)?
Answer: The TGI was 3.11 µM.

Question: And the TGI (UO-31 renal)?
Answer: Its TGI is 22.6 µM.

Question: And the TGI (RXF 393 renal)?
Answer: The TGI was 28.8 µM.

Question: What about the TGI (CAKI-1 renal) of the same compound?
Answer: The TGI was 29.3 µM.

Question: What about the TGI (HCT-15 colon) of the same compound?
Answer: Its TGI is 9.55 µM.

Question: What about the TGI (SF-295 CNS) of the same compound?
Answer: The TGI was 27.8 µM.

Question: And the TGI (EKVX NSCLC)?
Answer: The TGI was 33.9 µM.

Question: What about the TGI (HCT-116 colon) of the same compound?
Answer: The TGI was 7.44 µM.

Question: And the TGI (MALME-3M melanoma)?
Answer: Its TGI is 2.91 µM.

Question: And the TGI (SK-OV-3 ovarian)?
Answer: Its TGI is 38.8 µM.

Question: What about the TGI (A549 NSCLC) of the same compound?
Answer: Its TGI is 11.4 µM.

Question: And the TGI (SF-539 CNS)?
Answer: Its TGI is 25.6 µM.

Question: What about the TGI (HOP-92 NSCLC) of the same compound?
Answer: Its TGI is 20.7 µM.

Question: What about the TGI (RPMI-8226 leukemia) of the same compound?
Answer: The TGI was over 100 µM.

Question: And the TGI (TK-10 renal)?
Answer: Its TGI is 22.7 µM.

Question: What about the TGI (SK-MEL-2 melanoma) of the same compound?
Answer: The TGI was 18.5 µM.

Question: And the TGI (SN12C renal)?
Answer: Its TGI is 14.8 µM.

Question: What about the TGI (LOX IMVI melanoma) of the same compound?
Answer: The TGI was 6.62 µM.

Question: And the TGI (OVCAR-3 ovarian)?
Answer: The TGI was 5.35 µM.

Question: What about the TGI (SF-268 CNS) of the same compound?
Answer: The TGI was 37.1 µM.

Question: What about the TGI (UACC-62 melanoma) of the same compound?
Answer: The TGI was 4.1 µM.

Question: And the TGI (MDA-N)?
Answer: The TGI was 3.29 µM.

Question: And the TGI (MCF7 breast)?
Answer: Its TGI is 2.98 µM.

Question: What about the TGI (SW-620 colon) of the same compound?
Answer: The TGI was 6.48 µM.

Question: What about the TGI (K-562 leukemia) of the same compound?
Answer: The TGI was over 44.6 µM.

Question: And the TGI (U251 CNS)?
Answer: The TGI was 15.9 µM.

Question: What about the TGI (OVCAR-4 ovarian) of the same compound?
Answer: The TGI was 8.33 µM.

Question: What about the TGI (A498 renal) of the same compound?
Answer: The TGI was 27.8 µM.

Question: What about the TGI (HOP-62 NSCLC) of the same compound?
Answer: The TGI was 32.7 µM.

Question: What about the TGI (NCI-H460 lung) of the same compound?
Answer: Its TGI is 21.4 µM.

Question: And the TGI (786-0 renal)?
Answer: The TGI was 21.7 µM.

Question: And the TGI (HCC-2998 colon)?
Answer: The TGI was 6.95 µM.

Question: And the TGI (COLO 205 colon)?
Answer: The TGI was 2.86 µM.

Question: And the TGI (OVCAR-8 ovarian)?
Answer: The TGI was 17.9 µM.

Question: And the TGI (SNB-75 CNS)?
Answer: Its TGI is 30.6 µM.

Question: And the TGI (NCI/ADR-RES ovarian)?
Answer: Its TGI is 10.4 µM.

Question: And the TGI (CCRF-CEM leukemia)?
Answer: Its TGI is 14.8 µM.

Question: And the TGI (HS 578T breast)?
Answer: Its TGI is 45.3 µM.

Question: What about the TGI (SK-MEL-28 melanoma) of the same compound?
Answer: The TGI was 32.7 µM.

Question: What about the TGI (NCI-H226 lung) of the same compound?
Answer: Its TGI is 35.5 µM.

Question: And the TGI (NCI-H23 lung)?
Answer: Its TGI is 4.67 µM.

Question: What about the TGI (NCI-H522 lung) of the same compound?
Answer: The TGI was 5.75 µM.

Question: What about the TGI (IGROV1 ovarian) of the same compound?
Answer: The TGI was 9.9 µM.

Question: And the TGI (PC-3 prostate)?
Answer: Its TGI is 10.7 µM.

Question: What about the TGI (HL-60(TB) leukemia) of the same compound?
Answer: The TGI was over 29.2 µM.

Question: What about the TGI (MDA-MB-231 breast) of the same compound?
Answer: Its TGI is 21.8 µM.
